Assay results: ChEMBL document CHEMBL2074162, “P-glycoprotein-mediated transcellular transport of MDR-reversing agents” (FEBS Lett, 1993)

Molecular target: ATP-dependent translocase ABCB1 (Homo sapiens, UniProt P08183)
Test: TP_TRANSPORTER: transepithelial transport (basal to apical) in MDR1-expressing LLC-PK1 cells
Type: functional, cell-based
Details: pig

Sequence of ATP-dependent translocase ABCB1 (P08183 whole entry): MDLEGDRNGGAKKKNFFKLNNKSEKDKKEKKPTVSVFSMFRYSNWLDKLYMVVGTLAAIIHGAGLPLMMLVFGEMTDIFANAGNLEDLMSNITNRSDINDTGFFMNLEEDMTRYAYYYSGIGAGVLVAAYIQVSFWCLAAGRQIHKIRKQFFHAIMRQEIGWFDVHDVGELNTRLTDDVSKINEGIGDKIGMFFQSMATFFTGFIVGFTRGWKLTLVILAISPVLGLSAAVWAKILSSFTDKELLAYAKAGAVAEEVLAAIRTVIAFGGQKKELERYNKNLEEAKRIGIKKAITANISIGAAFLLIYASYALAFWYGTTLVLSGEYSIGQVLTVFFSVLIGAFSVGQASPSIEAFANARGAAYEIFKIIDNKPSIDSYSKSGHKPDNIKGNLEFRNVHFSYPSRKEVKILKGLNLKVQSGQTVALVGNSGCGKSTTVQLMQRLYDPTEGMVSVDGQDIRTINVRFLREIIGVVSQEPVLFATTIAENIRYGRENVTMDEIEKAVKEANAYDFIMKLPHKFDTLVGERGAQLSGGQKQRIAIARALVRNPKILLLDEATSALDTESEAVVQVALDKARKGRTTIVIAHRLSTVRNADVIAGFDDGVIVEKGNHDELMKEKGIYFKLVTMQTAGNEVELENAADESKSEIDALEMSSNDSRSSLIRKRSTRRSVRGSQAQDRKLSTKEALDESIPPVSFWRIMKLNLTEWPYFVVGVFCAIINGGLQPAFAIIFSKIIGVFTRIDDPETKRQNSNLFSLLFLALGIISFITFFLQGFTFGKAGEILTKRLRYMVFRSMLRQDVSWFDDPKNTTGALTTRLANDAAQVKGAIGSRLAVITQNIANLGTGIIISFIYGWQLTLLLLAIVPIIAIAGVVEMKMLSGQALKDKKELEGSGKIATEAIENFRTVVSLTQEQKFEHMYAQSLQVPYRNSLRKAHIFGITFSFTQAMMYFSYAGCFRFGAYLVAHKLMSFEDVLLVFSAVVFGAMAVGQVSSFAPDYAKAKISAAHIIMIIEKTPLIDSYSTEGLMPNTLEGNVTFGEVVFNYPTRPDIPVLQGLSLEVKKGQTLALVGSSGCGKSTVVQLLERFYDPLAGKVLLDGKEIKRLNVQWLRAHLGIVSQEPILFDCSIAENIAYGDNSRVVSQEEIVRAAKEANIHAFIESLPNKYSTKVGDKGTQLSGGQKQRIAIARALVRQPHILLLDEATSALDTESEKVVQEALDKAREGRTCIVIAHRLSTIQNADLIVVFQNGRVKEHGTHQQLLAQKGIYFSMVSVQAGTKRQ

| Compound | Activity |
| --- | --- |
| CCOC(=O)C1=C(C)NC(C)=C(C(=O)OCCNC(=O)c2ccc(N=[N+]=[N-])cc2)C1c1ccccc1C(F)(F)F (configuration not stated) [AZIDOPINE] | substrate [+] |
| COc1ccc([C@@H]2Sc3ccccc3N(CCN(C)C)C(=O)[C@@H]2OC(C)=O)cc1 [DILTIAZEM] | substrate [+] |
